Reference: ChEMBL document CHEMBL1201862, “PubChem BioAssay data set” (2004)
Active and inactive are the calls of the source.

Legend:
[1] = biological target: Lysosomal acid glucosylceramidase (Homo sapiens, UniProt P04062); test: Dose response cell-based high throughput screening assay to identify enhancers of beta-glucosidase activity. [Related pubchem assays: 784 ]; format: functional
Staphylococcus aureus = test: Inhibitors of Bacterial Quorum Sensing Structure Activity Relationship (SAR) Analysis: Dose Response Assay. [Related pubchem assays: 700, 527 ]; format: functional, organism-based
[2] = biological target: T1, Eukaryotic translation initiation factor 2-alpha kinase 3 (Homo sapiens, UniProt Q9NZJ5); test: Counterscreen assay for PERK inhibitors: Dose response cell-based high throughput screening assay to measure inhibition of PERK at 6 hours. [Related pubchem assays: 1522, 1416 ]; format: functional
[3] = biological target: T1, Eukaryotic translation initiation factor 2-alpha kinase 3; test: Dose response cell-based high-throughput screening assay to measure PERK inhibition. [Related pubchem assays: 1416 ]; format: functional
Streptococcus = test: Luminescence Microorganism-Based Dose Response Follow up to Identify Compounds Cytotoxic to Streptococcus. [Related pubchem assays: 1677 (Project Summary), 1915, 1914, 1902 (Retest at Dose), 1900 (Counter Screen), 1662 (Primary HTS)]; format: functional, organism-based
[4] = biological target: Mothers against decapentaplegic homolog 3 (Homo sapiens, UniProt P84022); test: Smad3 binding inhibitors, lysate ELISA, dose response, cell lysate, secondary confirmation, chemiluminescent ELISA, HEK293 lysate (AID 1058); format: functional
Estrogen receptor = biological target: T2, Estrogen receptor (Homo sapiens, UniProt P03372); test: ERα–SRC-3 coactivator interaction inhibitors, confirmation, orthogonal assay, biochemical, ELISA, streptavidin-HRP readout (AID 1079)
T2 sequence (P03372 whole entry): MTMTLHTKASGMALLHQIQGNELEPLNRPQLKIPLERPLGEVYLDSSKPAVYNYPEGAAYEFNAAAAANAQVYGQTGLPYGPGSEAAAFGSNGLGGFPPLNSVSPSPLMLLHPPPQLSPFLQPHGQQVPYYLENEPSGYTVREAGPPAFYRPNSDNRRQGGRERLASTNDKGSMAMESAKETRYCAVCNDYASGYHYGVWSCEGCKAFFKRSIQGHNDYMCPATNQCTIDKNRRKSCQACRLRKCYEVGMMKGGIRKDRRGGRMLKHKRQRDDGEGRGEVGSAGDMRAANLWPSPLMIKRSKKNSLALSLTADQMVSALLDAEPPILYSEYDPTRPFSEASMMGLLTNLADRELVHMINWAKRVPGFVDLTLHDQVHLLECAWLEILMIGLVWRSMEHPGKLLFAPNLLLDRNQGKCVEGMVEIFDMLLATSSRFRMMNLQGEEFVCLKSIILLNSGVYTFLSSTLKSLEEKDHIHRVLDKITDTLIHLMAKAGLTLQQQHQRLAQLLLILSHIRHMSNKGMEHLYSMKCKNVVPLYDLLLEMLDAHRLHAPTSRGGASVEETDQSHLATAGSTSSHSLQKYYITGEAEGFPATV

[5] = biological target: T3, Photoreceptor-specific nuclear receptor (Homo sapiens, UniProt Q9Y5X4); format: functional
[6] = biological target: Peroxisome proliferator-activated receptor gamma/Nuclear receptor corepressor 2 (Homo sapiens, UniProt P37231+Q9Y618); format: functional
[7] = biological target: T4, Short transient receptor potential channel 4 (Mus musculus, UniProt Q9QUQ5); test: mouse TRPC4 channel activators, dose response, cell-based, HEK293 TRPC4/mu-opioid, Fluo-4 calcium (AID 434937); format: functional
T4 sequence (Q9QUQ5 whole entry): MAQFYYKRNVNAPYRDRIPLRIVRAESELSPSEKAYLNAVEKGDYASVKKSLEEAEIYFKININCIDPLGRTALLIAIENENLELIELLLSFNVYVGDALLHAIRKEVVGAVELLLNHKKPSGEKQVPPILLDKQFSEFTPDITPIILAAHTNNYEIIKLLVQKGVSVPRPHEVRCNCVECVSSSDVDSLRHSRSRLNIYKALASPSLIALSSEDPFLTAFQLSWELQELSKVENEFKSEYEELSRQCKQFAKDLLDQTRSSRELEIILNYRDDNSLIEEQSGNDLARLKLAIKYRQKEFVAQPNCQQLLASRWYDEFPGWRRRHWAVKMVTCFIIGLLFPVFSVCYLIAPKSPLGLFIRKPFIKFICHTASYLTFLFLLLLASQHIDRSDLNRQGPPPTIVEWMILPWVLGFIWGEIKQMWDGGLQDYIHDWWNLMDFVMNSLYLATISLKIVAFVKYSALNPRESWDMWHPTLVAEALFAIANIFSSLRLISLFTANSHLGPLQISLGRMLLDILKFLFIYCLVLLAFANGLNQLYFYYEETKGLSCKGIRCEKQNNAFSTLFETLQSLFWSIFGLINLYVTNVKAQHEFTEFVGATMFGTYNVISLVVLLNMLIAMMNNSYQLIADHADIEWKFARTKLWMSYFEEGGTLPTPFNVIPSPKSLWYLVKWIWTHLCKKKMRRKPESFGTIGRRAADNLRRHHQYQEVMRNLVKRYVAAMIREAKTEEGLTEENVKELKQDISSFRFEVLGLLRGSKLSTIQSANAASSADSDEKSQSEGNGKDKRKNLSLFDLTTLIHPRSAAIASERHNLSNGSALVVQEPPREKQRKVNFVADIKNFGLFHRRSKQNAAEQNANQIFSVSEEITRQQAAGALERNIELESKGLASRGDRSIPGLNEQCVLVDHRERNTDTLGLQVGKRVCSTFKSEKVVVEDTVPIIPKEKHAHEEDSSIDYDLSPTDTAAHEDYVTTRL

[8] = biological target: Melanin-concentrating hormone receptor 1 (Homo sapiens, UniProt Q99705); test: Fluorescence-based counterscreen for antagonists of the G-protein coupled receptor 7 (GPR7): cell-based high throughput dose response assay to identify antagonists of the melanin-concentrating hormone receptor 1 (MCHR1).; format: functional
[9] = biological target: T5, Neuropeptides B/W receptor type 1 (Homo sapiens, UniProt P48145); test: Fluorescence-based dose response cell-based high throughput screening assay to identify antagonists of the G-protein coupled receptor 7 (GPR7). [Related pubchem assays: 1952 (Screening assay (GPR7 antagonists).), 1880 (Summary AID.)]; format: functional
T5 sequence (P48145 whole entry): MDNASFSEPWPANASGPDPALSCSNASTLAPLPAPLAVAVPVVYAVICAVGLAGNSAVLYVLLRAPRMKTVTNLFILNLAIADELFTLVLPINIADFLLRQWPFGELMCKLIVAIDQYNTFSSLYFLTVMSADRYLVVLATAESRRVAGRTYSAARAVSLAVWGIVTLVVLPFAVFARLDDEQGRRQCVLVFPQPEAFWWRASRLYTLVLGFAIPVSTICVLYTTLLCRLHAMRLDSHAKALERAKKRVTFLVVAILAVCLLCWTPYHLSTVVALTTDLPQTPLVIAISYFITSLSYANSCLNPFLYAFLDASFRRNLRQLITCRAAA

[10] = biological target: T6, Tyrosine-protein phosphatase non-receptor type 7 (Homo sapiens, UniProt P35236); format: functional
T6 sequence (P35236 whole entry): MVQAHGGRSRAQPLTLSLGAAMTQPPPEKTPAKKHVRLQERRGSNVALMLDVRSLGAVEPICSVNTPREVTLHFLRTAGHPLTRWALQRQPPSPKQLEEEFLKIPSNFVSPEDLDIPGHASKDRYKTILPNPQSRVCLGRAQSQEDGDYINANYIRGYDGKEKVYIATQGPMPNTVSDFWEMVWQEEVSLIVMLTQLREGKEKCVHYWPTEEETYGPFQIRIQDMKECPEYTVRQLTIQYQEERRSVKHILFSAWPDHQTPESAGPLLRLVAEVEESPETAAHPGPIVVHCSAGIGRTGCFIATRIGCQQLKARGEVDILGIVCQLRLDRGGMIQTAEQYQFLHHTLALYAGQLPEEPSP

[11] = biological target: T7, Dual specificity protein phosphatase 6 (Rattus norvegicus, UniProt Q64346); format: functional
T7 sequence (Q64346 whole entry): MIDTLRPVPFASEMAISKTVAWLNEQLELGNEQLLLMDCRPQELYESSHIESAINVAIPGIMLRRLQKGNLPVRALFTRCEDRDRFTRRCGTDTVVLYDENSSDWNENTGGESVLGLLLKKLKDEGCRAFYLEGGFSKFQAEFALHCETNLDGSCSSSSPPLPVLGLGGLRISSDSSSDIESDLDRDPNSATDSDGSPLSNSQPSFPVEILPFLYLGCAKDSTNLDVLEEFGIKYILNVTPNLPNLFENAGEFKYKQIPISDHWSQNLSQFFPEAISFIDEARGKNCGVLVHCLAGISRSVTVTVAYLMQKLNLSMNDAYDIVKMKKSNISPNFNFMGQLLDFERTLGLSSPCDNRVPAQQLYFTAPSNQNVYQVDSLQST

[12] = biological target: Heat shock cognate 71 kDa protein (Homo sapiens, UniProt P11142); test: In Vitro Hsc70 Dose Response Fluorescence Polarization Assay. [Related pubchem assays: 1072 ]
[13] = biological target: Glyceraldehyde-3-phosphate dehydrogenase (Homo sapiens, UniProt P04406)
[14] = biological target: T7, Dual specificity protein phosphatase 6
[15] = biological target: Heat shock 70 kDa protein 1A (Homo sapiens, UniProt P0DMV8); test: Hsp70 inhibitors, SAR follow-up, biochemical, fluorescence polarization (AID 1072)
[16] = growth suppression of PTEN-null colon cells, dose response, cell-based, HCT116 PTEN knockout (AID 1047); format: functional;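 also: HCT116 colon tumor cells with PTEN knocked out; cells exposed to compound for 60 hours before readout; potency for loss of cell viability measured by luminescence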
[17] = biological target: Serine/threonine-protein phosphatase PP1-alpha catalytic subunit (Homo sapiens, UniProt P62136); test: PP1 phosphatase inhibitors, dose response, biochemical, fluorescence (AID 2403);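 also: phosphatase turnover of OMFP into fluorescent 3-O-methylfluorescein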
[18] = biological target: Serine/threonine-protein phosphatase (Homo sapiens, UniProt Q9BPW0); test: Counterscreen for inhibitors of PP1: fluorescence-based biochemical high throughput dose response assay to identify inhibitors of Protein Phosphatase 5 (PP5). [Related pubchem assays: 2034 (Summary (PP5 inhibitors)), 1987 (PP5 inhibitors in singlate), 2235 (PP1 inhibitors in singlate)]
[19] = growth suppression of beta-catenin-knockout colon cells, dose response, cell-based, HCT116, human colon tumor (AID 1045); format: functional;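 also: HCT116 colon tumor cells with beta catenin knocked out; cells exposed to compound for 60 hours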
[20] = enhancers of respiration in Yfh1-depleted yeast, dose response, Friedreich's ataxia, plus single-dose screen (AID 1465); format: functional;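 also: yeast depleted of Yfh1p frataxin homolog grown on glycerol needing respiration; WST-1 tetrazolium dye reduction as measure of cellular dehydrogenase metabolic activity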
INS1 = test: beta cell apoptosis inhibitors, cytokine rescue, dose response, luminescence, retest (AID 449756); format: functional, cell-based; details: Rattus norvegicus;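 also: cell death triggered by IL-1 beta plus TNF-alpha plus IFN-gamma mixture; protective hits raise ATP signal compared with cytokine alone wells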
[21] = C. albicans growth with fluconazole, confirmation, fluorescence, retest (AID 2467); format: functional, cell-based
[22] = NIH-3T3 fibroblast cytotoxicity, dose response, cytotoxicity control, cell-based, fluorescence, Alamar Blue, secondary assay (AID 2327); format: functional;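 also: NIH-3T3 mouse fibroblasts cultured with fluconazole at 8 µg/mL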
[23] = biological target: T3, Photoreceptor-specific nuclear receptor; format: functional, cell-based
[24] = biological target: T4, Short transient receptor potential channel 4; test: mouse TRPC4 channel inhibitors, dose response, cell-based, HEK293 TRPC4/mu-opioid, Fluo-4 calcium (AID 434942); format: functional;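 also: potency of inhibitors blocking the TRPC4 calcium response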
cells [25] = format: functional, cell-based
cells [26] = format: functional, cell-based; remark: listed apart in the source
[27] = microbe, parasite or virus in culture; format: functional; details: Mycobacterium tuberculosis
[28] = HIV-1 Env-mediated cell fusion inhibitors, dose response, CCR5-tropic Env (AID 2279); format: functional
Nonstructural protein 1 = Nonstructural protein 1 (Influenza A virus, UniProt Q194T2); format: functional, Influenza A virus (A/California/07/2009(H1N1))
Cytochrome P450 2C9 = Cytochrome P450 2C9 (Homo sapiens, UniProt P11712); details: Potency
Cytochrome P450 2D6 = Cytochrome P450 2D6 (Homo sapiens, UniProt P10635); test: qHTS Assay for Inhibitors and Substrates of Cytochrome P450 2D6. [Related pubchem assays: 410 ]; format: ADME; details: read-out: Potency
Chain of Cytochrome P450 2D6 (P10635 whole entry): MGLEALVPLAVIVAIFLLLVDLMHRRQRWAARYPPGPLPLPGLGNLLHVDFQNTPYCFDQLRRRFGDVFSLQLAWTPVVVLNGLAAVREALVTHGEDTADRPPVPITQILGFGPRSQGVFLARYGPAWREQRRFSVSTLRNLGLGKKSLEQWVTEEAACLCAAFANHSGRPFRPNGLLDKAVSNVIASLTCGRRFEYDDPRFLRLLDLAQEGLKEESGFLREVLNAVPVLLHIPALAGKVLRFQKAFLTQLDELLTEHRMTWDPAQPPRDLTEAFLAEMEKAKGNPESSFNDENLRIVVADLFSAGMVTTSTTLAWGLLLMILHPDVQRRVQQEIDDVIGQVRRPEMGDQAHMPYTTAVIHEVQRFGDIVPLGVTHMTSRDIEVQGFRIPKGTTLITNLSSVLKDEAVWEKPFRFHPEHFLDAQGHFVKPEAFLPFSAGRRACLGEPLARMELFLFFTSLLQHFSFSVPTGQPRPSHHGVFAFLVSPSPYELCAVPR

T1 sequence (Q9NZJ5 whole entry): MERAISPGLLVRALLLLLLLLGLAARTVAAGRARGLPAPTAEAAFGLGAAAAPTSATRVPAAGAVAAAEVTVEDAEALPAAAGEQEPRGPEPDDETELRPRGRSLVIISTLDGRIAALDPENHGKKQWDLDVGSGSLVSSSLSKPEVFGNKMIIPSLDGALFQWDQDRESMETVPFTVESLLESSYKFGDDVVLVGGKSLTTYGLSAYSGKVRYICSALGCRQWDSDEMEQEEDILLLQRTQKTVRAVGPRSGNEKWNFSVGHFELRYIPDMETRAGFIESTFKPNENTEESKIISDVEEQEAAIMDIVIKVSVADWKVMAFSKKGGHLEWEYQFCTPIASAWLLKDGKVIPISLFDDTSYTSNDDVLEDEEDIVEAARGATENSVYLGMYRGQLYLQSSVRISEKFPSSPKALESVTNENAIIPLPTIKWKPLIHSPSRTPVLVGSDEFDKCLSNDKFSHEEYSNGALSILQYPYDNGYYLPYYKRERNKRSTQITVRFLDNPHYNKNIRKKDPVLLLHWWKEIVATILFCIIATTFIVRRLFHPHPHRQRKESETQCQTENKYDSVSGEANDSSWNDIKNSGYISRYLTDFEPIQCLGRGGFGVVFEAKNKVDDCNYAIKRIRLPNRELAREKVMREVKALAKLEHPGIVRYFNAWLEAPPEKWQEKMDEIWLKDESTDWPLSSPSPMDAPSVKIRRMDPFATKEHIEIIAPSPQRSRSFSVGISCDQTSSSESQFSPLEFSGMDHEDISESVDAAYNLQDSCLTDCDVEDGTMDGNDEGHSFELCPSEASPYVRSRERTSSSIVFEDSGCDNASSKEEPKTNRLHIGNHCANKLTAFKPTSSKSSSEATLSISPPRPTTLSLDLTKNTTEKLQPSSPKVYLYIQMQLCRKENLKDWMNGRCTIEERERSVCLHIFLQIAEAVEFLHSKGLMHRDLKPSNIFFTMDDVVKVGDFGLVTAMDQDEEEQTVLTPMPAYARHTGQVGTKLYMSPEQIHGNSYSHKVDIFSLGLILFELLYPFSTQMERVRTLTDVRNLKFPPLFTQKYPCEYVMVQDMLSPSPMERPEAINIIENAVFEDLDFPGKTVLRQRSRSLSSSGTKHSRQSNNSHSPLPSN
T3 sequence (Q9Y5X4 whole entry): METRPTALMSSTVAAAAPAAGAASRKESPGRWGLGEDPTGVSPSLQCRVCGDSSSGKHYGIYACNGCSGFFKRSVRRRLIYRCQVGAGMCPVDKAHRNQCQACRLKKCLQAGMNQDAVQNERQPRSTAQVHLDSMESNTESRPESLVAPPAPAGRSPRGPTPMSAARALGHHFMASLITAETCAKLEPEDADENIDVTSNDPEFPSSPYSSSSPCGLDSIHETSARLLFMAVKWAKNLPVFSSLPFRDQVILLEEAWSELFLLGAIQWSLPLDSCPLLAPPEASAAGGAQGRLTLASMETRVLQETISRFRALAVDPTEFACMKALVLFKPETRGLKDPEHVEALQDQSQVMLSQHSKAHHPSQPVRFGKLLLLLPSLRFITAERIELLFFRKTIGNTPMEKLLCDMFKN
Chain of Cytochrome P450 2C9 (P11712 whole entry): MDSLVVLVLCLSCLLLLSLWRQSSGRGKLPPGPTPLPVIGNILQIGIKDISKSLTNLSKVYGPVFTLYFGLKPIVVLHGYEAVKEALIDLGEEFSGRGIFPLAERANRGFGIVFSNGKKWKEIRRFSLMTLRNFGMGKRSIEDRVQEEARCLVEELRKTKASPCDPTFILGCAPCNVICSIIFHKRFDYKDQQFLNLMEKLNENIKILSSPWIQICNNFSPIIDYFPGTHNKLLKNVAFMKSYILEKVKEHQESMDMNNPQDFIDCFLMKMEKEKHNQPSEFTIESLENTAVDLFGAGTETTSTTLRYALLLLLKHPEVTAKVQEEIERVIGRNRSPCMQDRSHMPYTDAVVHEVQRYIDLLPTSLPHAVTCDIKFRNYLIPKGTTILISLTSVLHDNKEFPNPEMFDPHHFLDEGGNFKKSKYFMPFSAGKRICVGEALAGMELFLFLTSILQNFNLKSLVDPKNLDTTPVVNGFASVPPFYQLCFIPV
Chain of Serine/threonine-protein phosphatase PP1-alpha catalytic subunit (P62136 whole entry): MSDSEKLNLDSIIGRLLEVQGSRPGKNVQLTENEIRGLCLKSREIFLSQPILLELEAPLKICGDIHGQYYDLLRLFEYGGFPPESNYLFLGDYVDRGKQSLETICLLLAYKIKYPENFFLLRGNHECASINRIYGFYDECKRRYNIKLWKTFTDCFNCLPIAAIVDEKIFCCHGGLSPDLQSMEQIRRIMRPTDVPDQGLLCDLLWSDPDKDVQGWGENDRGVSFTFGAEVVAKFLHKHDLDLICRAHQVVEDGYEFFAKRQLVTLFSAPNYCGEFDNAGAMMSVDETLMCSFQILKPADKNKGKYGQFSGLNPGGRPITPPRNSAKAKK
Chain of Serine/threonine-protein phosphatase (Q9BPW0 whole entry): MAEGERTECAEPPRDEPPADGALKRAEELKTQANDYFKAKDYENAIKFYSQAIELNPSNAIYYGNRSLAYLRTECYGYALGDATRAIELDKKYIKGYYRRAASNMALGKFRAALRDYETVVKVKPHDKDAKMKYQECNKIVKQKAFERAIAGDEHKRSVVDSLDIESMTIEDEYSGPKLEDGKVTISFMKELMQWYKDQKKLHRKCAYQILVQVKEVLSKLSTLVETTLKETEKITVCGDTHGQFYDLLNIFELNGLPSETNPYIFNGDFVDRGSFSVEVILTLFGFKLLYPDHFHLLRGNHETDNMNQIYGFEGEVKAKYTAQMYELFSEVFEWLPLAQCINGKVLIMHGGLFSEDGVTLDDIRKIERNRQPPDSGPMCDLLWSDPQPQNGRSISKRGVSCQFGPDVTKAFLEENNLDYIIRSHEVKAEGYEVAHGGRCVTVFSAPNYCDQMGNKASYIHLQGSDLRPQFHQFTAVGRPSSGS
Chain of Heat shock cognate 71 kDa protein (P11142 whole entry): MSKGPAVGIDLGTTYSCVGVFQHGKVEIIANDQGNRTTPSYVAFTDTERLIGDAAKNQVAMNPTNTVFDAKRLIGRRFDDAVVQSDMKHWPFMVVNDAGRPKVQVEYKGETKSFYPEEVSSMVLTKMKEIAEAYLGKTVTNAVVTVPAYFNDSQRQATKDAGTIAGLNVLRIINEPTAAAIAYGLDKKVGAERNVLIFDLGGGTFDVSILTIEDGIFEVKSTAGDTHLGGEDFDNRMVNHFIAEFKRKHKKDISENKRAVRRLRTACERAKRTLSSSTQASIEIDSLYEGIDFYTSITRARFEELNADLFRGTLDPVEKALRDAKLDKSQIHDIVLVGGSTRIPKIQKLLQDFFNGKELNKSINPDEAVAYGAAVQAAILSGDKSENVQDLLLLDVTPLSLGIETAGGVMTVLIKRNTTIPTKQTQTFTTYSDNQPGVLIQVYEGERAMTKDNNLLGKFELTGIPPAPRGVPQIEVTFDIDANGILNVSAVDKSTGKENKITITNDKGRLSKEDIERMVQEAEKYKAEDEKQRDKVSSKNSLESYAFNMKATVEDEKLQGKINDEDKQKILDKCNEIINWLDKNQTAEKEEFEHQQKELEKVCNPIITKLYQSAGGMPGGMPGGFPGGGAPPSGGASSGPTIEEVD
Chain of Melanin-concentrating hormone receptor 1 (Q99705 whole entry): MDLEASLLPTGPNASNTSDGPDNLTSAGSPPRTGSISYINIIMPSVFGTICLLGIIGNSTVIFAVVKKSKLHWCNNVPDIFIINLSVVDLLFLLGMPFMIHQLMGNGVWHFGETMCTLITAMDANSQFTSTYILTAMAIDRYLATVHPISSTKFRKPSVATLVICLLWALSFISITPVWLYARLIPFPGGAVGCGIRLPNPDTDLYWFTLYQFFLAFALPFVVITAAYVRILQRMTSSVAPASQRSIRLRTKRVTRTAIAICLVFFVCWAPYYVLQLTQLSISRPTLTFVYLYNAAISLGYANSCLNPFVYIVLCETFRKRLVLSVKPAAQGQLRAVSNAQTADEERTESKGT
Chain of Glyceraldehyde-3-phosphate dehydrogenase (P04406 whole entry): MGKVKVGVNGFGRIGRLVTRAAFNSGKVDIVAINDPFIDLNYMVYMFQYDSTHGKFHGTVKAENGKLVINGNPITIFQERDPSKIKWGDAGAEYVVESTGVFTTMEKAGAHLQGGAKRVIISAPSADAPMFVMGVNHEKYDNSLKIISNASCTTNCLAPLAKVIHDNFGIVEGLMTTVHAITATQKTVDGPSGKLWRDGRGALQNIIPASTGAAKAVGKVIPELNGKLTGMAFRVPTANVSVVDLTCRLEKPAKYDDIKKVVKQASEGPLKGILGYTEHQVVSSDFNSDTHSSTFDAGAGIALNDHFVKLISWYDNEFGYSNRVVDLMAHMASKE
Chain of Nonstructural protein 1 (Q194T2 whole entry): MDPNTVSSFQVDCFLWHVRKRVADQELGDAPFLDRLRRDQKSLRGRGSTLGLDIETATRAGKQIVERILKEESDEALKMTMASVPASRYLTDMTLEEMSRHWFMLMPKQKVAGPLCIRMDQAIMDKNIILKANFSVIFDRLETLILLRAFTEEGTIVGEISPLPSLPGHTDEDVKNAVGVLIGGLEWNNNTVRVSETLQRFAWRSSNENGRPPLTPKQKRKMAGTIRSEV

In the case of `CC1=C(C(=O)Nc2cccnc2)C(c2ccncc2)n2nnnc2N1` (stereo not given), the EC50 [1] is reported as > 50 µM (not active).

In the case of `COc1ccccc1N1CCN(C(CNC(=O)c2cccc(Cl)c2)c2cccnc2)CC1` (stereo not given), the IC50 (Staphylococcus aureus) is reported as 0.457 µM (active).

For `Cn1nc(C(F)(F)F)c(-c2ccccc2)c1NC(=O)CCC(=O)O`, the EC50 [2] was > 55.7 µM (not active) and the EC50 [3] was > 55.7 µM (not active).

For `O=C(CSc1ccncc1)N1c2ccccc2Sc2ccccc21`, the EC50 (Streptococcus) was > 500 µM (not active).

With `Oc1cc2c(cc1C(c1ccc3c(c1)OCO3)N1CCOCC1)OCO2` (stereo not given) the IC50 [4] was > 40 µM (not active).

For `O=C(CCCCCn1c(=S)[nH]c2ccccc2c1=O)N1CCN(c2ccc(C(F)(F)F)cc2)CC1`, the IC50 (Estrogen receptor) was 42.8 µM (not active).

With `CCNC(=S)Nc1nc2c(cc1C(=O)OCC)CCCC2` the IC50 [5] was > 39.8 µM (not active) and the IC50 [6] was 32.7 µM (not active).

With `CC(NCCC1(Cc2ccccc2Cl)CCOC(C)(C)C1)c1cccs1` (stereo not given) the EC50 [7] was 5.31 µM (active), the IC50 [8] was 13.3 µM (not active) and the IC50 [9] was 12.7 µM (not active).

For `O=C(O)C1Nc2ccc([N+](=O)[O-])cc2C2C=CCC12` (stereo not given), the IC50 [10] was 7.58 µM (active), the IC50 [11] was 47.5 µM (active) and the IC50 [12] was 48.4 µM (active). The IC50 [13] was 97.4 µM (active), the IC50 [14] was 52 µM (active) and the IC50 [15] was 6.06 µM (active).

With `COc1ccc2c(Cl)c(C(=O)N/N=C/c3ccc4c(c3)OCO4)sc2c1` the EC50 [16] was 20.7 µM (active), the IC50 [17] was 5.11 µM (active) and the IC50 [18] was > 67 µM (not active). For the same compound, the EC50 [19] was 25.4 µM (active).

For `COc1cccc(N/N=C2\C(=O)Nn3c2nc2c(c3=O)CCC2)c1`, the EC50 [20] was > 100 µM (active).

In the case of `Brc1ccc(N/N=C(/N=Nc2nn[nH]n2)c2ccccc2)cc1`, the AC50 (INS1) is reported as 1.77 µM (active), the EC50 [21] is reported as > 38 µM (not active) and the EC50 [22] is reported as 2.55 µM (inconclusive). For the same compound, the IC50 [23] was 6.49 µM (active), the EC50 [24] was 7.5 µM (active) and the EC50 (cells [25]) was 47.2 µM (active). For the same compound, the EC50 (cells [26]) was 86.5 µM (active), the CC50 [27] was 7.7 µM (active) and the IC50 [28] was 9.87 µM (active). For the same compound, the IC50 (Nonstructural protein 1) was 6 µM (active).

For `CN(C)c1ccc(C(=C2C=CC(=[N+](C)C)C=C2)c2c(O)c(S(=O)(=O)[O-])cc3cc(S(=O)(=O)O)ccc23)cc1`, the AC50 (Cytochrome P450 2C9) was 2.51 µM (inconclusive) and the AC50 (Cytochrome P450 2D6) was 3.16 µM (inconclusive).
